Assay results from patent publication US12616646B2, “Use of rochelle salt” (SKYLAB AG, priority 2021, dated 2026).

What was measured:
[1] = concentration of 0.01%; vegetable oils subjected to heating; cited from earlier work
[2] = Antioxidant activity in relation to ascorbic acid by the ferricyanide spectrophotometric method; conditions: 2% solution in distilled water
From the text: Materials and methods. The test item was 2% seignette salt solution in distilled water.

[3] = FtCl (Ft Cleaning) 300 cleaning and whitening ability test on Martindale tester, Example 1; conditions: Δ by 4 cycles values
Method: To determine resistance of dental enamel to attrition on a Martindale tester (hereinafter—Tester) the sets were analyzed—samples of solutions of piezoelectric materials and tooth brushes based on the following indicator: • FtCl (Ft Cleaning) 300, characterizes the cleaning ability of a solution (paste) by making 300 cleaning movements (mah) in a suspension of piezoelectric materials. The indicator is used as an analog of PCR (Pellicle Cleaning Ration) and it enables quantitative assessment of the cleaning and whitening action of a solution (paste) in case of a single-time cleaning. […]
Determination of FtCl300 for a solution of piezoelectric materials: • path: ∞L=25 mm, • rate 150 mah/min, • impact—300 mah, • brush load 325 g, • minimum quantity of parallel determinations—one per each paste with a test brush, • a test tooth brush: tooth brush PROFESSIONAL COMPLETE of medium hardness, • use one brush head for not more than 3-4 cycles, i.e. for 900-1200 mah, owing to wear out of bristles; then replace the brush head with a new one. […]
FtCl300 values were calculated by the formula: FtCl300=100*(Lcl−Lcol)/(Lin−Lcol) Preparation of Solutions: • 1. […]
Test results. […] In this model any color is determined with lightness (L-Lightness) and two chromatic components: channel a—colors from dark green through gray to purple, channel b—colors from blue through gray to yellow. […]

SMILES	antioxidant effect [1]	Antioxidant activity (AOA) [2]	Antioxidant activity, AOA in relation to vitamin C (higher than vitamin C) [2]	difference in FtCl300 to barium titanate [3]
O=C([O-])C(O)C(O)C(=O)[O-].[Na+].[Na+] (stereo not shown) [sodium tartrate]	marked antioxidant effect			
O.O.O.O.O=C([O-])C(O)C(O)C(=O)[O-].[K+].[Na+] (stereo not shown) [seignette salt, potassium sodium tartrate KNaC4H4O6·4H2O]		0.00013 mol-eq/l	13.7%	0.19
